Measurements reported in patent publication US20140142333A1, “NOVEL ANILINE DERIVATIVES AND USE THEREOF” (NEOMICS Co, Ltd., priority 2011, published 2014).

Legend:
AIMP2-DX2 [1] = target: T1, AIMP2-DX2 (Homo sapiens, UniProt Q13155); assay: luciferase assay of pGL-DX-2 transfected A549 cells; details: luciferase activity 4 hours after compound treatment; N.C (DMSO) 20089; lower = inhibition
T1 sequence (Q13155 1-251 isoform Q13155-2): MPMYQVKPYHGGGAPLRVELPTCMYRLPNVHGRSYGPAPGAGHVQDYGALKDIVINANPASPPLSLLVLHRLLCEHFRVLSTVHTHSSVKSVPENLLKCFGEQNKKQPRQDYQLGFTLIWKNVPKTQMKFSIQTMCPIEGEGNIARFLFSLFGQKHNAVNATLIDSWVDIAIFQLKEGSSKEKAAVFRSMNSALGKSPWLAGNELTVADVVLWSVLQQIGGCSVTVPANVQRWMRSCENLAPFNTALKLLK

AIMP2-DX2 [2] = target: T1, AIMP2-DX2; assay: luciferase assay of pGL-DX-2 transfected H460 cells; details: luciferase activity 4 hours after compound treatment; N.C (DMSO) 8627; lower = inhibition
Procedure: In order to screen for a compound specifically inhibiting the activity of AIMP2-DX2, from a compound library bought from ChemDive (US), the inventors' transfected lung cancer cell line, H460, with pGL2-DX2 (see FIG. 2). After culturing the cell line for 24 hours, they treated it with a compound. Then, after further culturing for 4 hours, luciferase activity was measured through a luciferase assay kit according to a manufacturer protocol (Promega, US), by using a luminometer.
After further culturing for 4 hours, luciferase activity was measured.

AIMP2-DX2 activity in A549 cells (AIMP2-DX2 [1])	AIMP2-DX2 activity in H460 cells (AIMP2-DX2 [2])	Structure (SMILES)
14179	7101	Cc1ccc(NC(=O)/C=C/C(=O)Nc2ccc(C)c(C)c2)cc1C [compound 1, N1,N4-bis(3,4-dimethylphenyl)fumaramide]
14072	7292	Cc1cccc(NC(=O)/C=C/C(=O)Nc2cccc(C)c2)c1 [compound 2, N1,N4-di-m-tolylfumaramide]
10043	7749	Cc1ccc(C)c(NC(=O)/C=C\C(=O)Nc2ccc(C)c(C)c2)c1 [compound 3, N1-(2,5-dimethylphenyl)-N4-(3,4-dimethylphenyl)maleamide]
9605	8189	Cc1cccc(NC(=O)/C=C\C(=O)Nc2cccc(C)c2)c1 [compound 4, N1,N4-di-m-tolylmaleamide]
9643	7427	Cc1ccc(NC(=O)/C=C\C(=O)Nc2ccc(F)cc2C)cc1C [compound 5, N1-(3,4-dimethylphenyl)-N4-(4-fluoro-2-methylphenyl)maleamide]
10551	8901	Cc1ccc(NC(=O)/C=C\C(=O)Nc2ccc(C)c(F)c2)cc1C [compound 6, N1-(3,4-dimethylphenyl)-N4-(3-fluoro-4-methylphenyl)maleamide]
8268	5019	Cc1ccc(NC(=O)/C=C\C(=O)Nc2cc(Cl)cc(Cl)c2)cc1C [compound 7, N1-(3,5-dichlorophenyl)-N4-(3,4-dimethylphenyl)maleamide]
6705	7648	Cc1ccc(C)c(NC(=O)/C=C\C(=O)O)c1 [compound 8, (Z)-4-[(2,5-dimethylphenyl)amino]-4-oxobut-2-enoic acid]
6786	7064	Cc1cc(C)cc(NC(=O)/C=C\C(=O)O)c1 [compound 9, (Z)-4-[(3,5-dimethylphenyl)amino]-4-oxobut-2-enoic acid]
12399	8045	CCCCc1ccc(NC(=O)/C=C\C(=O)O)cc1 [compound 10, (Z)-4-[(4-butylphenyl)amino]-4-oxobut-2-enoic acid]
6328	7143	Cc1cccc(NC(=O)/C=C\C(=O)O)c1 [compound 11, (Z)-4-oxo-4-(m-tolylamino) but-2-enoic acid]
7937	7031	O=C(O)/C=C\C(=O)Nc1ccc(F)cc1 [compound 12, (Z)-4-[(4-fluorophenyl)amino]-4-oxobut-2-enoic acid]
8049	7855	O=C(O)/C=C\C(=O)Nc1cc(Cl)cc(Cl)c1 [compound 13, (Z)-4-[(3,5-dichlorophenyl)amino]-4-oxobut-2-enoic acid]
240	230	Cc1cc(Cl)cc(Cl)c1NC(=O)/C=C\C(=O)O [compound 14, (Z)-4-[(2,4-dichloro-6-methylphenyl)amino]-4-oxobut-2-enoic acid]
6981	8621	Cc1cc(C)cc(NC(=O)/C=C\C(=O)Nc2ccc(C)c(C)c2)c1 [compound 15, N1-(3,4-dimethylphenyl)-N4-(3,5-dimethylphenyl)maleamide]
6871	7511	CCCCc1cccc(NC(=O)/C=C\C(=O)Nc2ccc(C)c(C)c2)c1 [compound 16, N1-(3-butylphenyl)-N4-(3,4-dimethylphenyl)maleamide]
6975	5718	Cc1ccc(NC(=O)/C=C\C(=O)Nc2ccc(Br)cc2)cc1C [compound 17, N1-(4-bromophenyl)-N4-(3,4-dimethylphenyl)maleamide]

AIMP2-DX2 activity in A549 cells (AIMP2-DX2 [1])	AIMP2-DX2 activity in H460 cells (AIMP2-DX2 [2])	Structure (SMILES)
4239	3246	COc1cccc(NC(=O)/C=C\C(=O)Nc2ccc(F)cc2)c1 [compound 18, N1-(4-fluorophenyl)-N4-(3-methoxyphenyl)maleamide]
3978	3715	CCc1cccc(NC(=O)/C=C\C(=O)Nc2ccc(F)cc2)c1 [compound 19, N1-(3-ethylphenyl)-N4-(4-fluorophenyl)maleamide]
6446	7639	Cc1ccc(NC(=O)/C=C\C(=O)O)cc1F [compound 20, (Z)-4-[(3-fluoro-4-methylphenyl)amino]-4-oxobut-2-enoic acid]
7285	6061	O=C(/C=C/C(=O)Nc1cc(Cl)cc(Cl)c1)Nc1cc(Cl)cc(Cl)c1 [compound 21, N1,N4-bis(3,5-dichlorophenyl)fumaramide]
5647	6377	O=C(/C=C/C(=O)Nc1ccc(Br)cc1)Nc1ccc(Br)cc1 [compound 22, N1,N4-bis(4-bromophenyl) fumaramide]
5352	6391	O=C(/C=C/C(=O)Nc1ccc(Cl)c(Cl)c1)Nc1ccc(Cl)c(Cl)c1 [compound 23, N1,N4-bis(3,4-dichlorophenyl)fumaramide]
5812	7094	Cc1ccc(NC(=O)/C=C/C(=O)Nc2ccc(C)c(F)c2)cc1F [compound 24, N1,N4-bis(3-fluoro-4-methylphenyl)fumaramide]
5152	6085	COc1ccc(NC(=O)/C=C\C(=O)Nc2ccc(OC)cc2)cc1 [compound 25, N1,N4-bis(4-methoxyphenyl) maleamide]
6525	6428	Cc1ccc(NC(=O)/C=C\C(=O)Nc2ccc(F)cc2)cc1F [compound 26, N1-(3-fluoro-4-methylphenyl)-N4-(4-fluorophenyl)maleamide]
5586	6029	Cc1cc(F)ccc1NC(=O)/C=C\C(=O)Nc1ccc(F)cc1C [compound 27, N1,N4-bis(4-fluoro-2-methylphenyl)maleamide]
6691	7722	COc1cccc(NC(=O)C(C)C(=O)Nc2cc(C)ccc2C)c1 (stereo not drawn) [compound 28, N1-(2,5-dimethylphenyl)-N3-(3-methoxyphenyl)-2-methylmalonamide]
5662	5916	Cc1cccc(NC(=O)/C=C\C(=O)Nc2ccc(F)cc2)c1 [compound 29, N1-(4-fluorophenyl)-N4-(m-tolyl)maleamide]
7291	7167	COc1cccc(NC(=O)C(C)C(=O)Nc2cc(C)cc(C)c2)c1 (stereo not drawn) [compound 30, N1-(3,5-dimethylphenyl)-N3-(3-methoxyphenyl)-2-methylmalonamide]
5771	6346	CCOC(=O)C(C)C(=O)Nc1ccc2cc3ccccc3cc2c1 (stereo not drawn) [compound 31, ethyl 3-(anthracen-2-ylamino)-2-methyl-3-oxopropanoate]
19889	4848	CCOC(=O)CC(=O)Nc1ccc(O)cc1Cl [compound 32, ethyl 3-[(2-chloro-4-hydroxyphenyl)amino]-3-oxopropanoate]
18631	5403	CCOC(=O)C(C)C(=O)Nc1ccc(O)cc1Cl (stereo not drawn) [compound 33, ethyl 3-[(2-chloro-4-hydroxyphenyl)amino]-2-methyl-3-oxopropanoate]
